Laboratory results reported in patent publication US6218378A, “Anti-tumor agents comprising pyridyl-substituted metal-diphosphine complex” (priority 1994, dated 2001).
Values joined by “and” are separate entries in the source; they are usually repeats but may differ in a detail not shown here. Equal entries are not always repeated. Where two headings read alike, the source gives them in different places.

Experiments:
[1] = test system: four human tumour cell lines (MM96, HeLa, CI-80-13S, HeLa-S1a); assay: cytotoxicity against four human tumour cell lines in vitro (FIGS. 3 and 4); format: cell-based; conditions: for cytotoxicity (FIGS. 3 and 4): all four cell lines; for selectivity against the cisplatin-resistant lines: compared with formula (I) or (V), R=4-pyridyl and 3-pyridyl
Description: (§1) The origins of the human melanoma cell line MM96 has been described in Whitehead et al., 1973, Pigment Cell 1 383-389. The cell line JAM is described in Ward et al., 1987, Cancer Res. 47 2662-2667. The origin of the ovarian tumour line CI-80-13S has been described in Bertoncello et al., 1985, Aust. J. Exp. Biol. Med. Sci. 63 241-243. The origin of the cervical carcinoma cell line HeLa has been described in Maynard et al., 1986, Cancer Res. 46 5009-5093. The subclone HeLa-S1a was derived by stably transfecting HeLa with PAI-2 cDNA described in Schleuning et al., 1987, Mol. Cell. Biol. 7 4564-4567 in the sense orientation under the control of the cyto-megalovirus (CMV) promoter. The stably infected subclone was isolated following G418 selection and expression of the PAI-2 transgene characterised by immunoblot analysis and quantitated by ELISA. All of these cell lines have been used before for carrying out cell survival assays referred to in FIGS. 1-4. Cells were cultured at 37° in 5% CO2 /air in Roswell Park Memorial Institute medium 1640 containing 5% foetal calf serum, 100 μg/ml streptomycin, 100 IU/ml penicillin, 1 mM pyruvate, 50 μM nicotinamide and 3 mM HEPES.
(§2) Cells were seeded in microtitre plates (lowest number for fastest growing cells: 1000 HeLa, 2000 MM96, […] CI-80-13S cells per 6 mm well in 100 μl), normally but not necessarily allowed to attach overnight, then 5 dilutions of the drug were added to duplicate wells. After an overnight incubation to equilibrate the pH, the lids were quickly taped around the edge to prevent evaporation. The plates were incubated for 5-7 days, until the controls were nearly confluent. Cell growth/morphology was scored at each dose visually (inverted microscope). The medium was then replaced by 50 μl fresh medium containing 2 u/Ci/ml [methyl-3H]-thymidine (5 Ci/mmol; Radiochemical Centre, Amersham, Bucks., U.K.) and incubated for 2-4 hr. The cells were washed with PBS (0.1 M NaCl, 50 mM phosphate, pH 7.2), detached with 100 μl of PBS containing 0.2 mg/ml trypsin and 10 mM EDTA, and washed onto a glass fibre GF/a filter mat with water using a cell harvester. Later, wells were checked under the microscope to ensure complete detachment and washout. Radioactivity was determined in an LKB Beta Plate counter and the results plotted as log % control cpm versus dose. The ID50 (dose required to give 50% survival) was interpolated from this survival curve.
We have tested the following compounds of formula (III) against the four human tumour cell lines described above, i.e.: […]

41M = assay: cytotoxicity assay, sulforhodamine B; format: cell-based, human; conditions: 96 hrs, mean ± SD or individual values when n<3
Procedure: (§3) In Table 2, reference is made to cell lines 41M, 41M-cisR, SKOV-3, CH1 and CH1-cisR.
(§4) J. Cancer 69 1-7. The characteristics of the cell line pairs CH1/CH1 cisR, 41M/41McisR and 41M/SKOV3 are described in Table 3.
(§5) The cytotoxicity assay used sulforhodamine B which stains the basic amino acids. Cells (5000 or 2500 for SKOV-3) were seeded into 96 well microtitre plates (Linbro, Flow Laboratories Inc., USA) in 0.1 ml of medium. After an overnight incubation, the metal phosphine compounds were dissolved in 0.9% NaCl or ethanol and diluted with medium, were added at concentrations ranging from 0.005 to 50 μM to quadruplicate wells. After 96 hrs incubation, the medium was removed and cells were fixed in 0.2 ml of cold 10% (w/v) trichloroacetic acid (May & Baker Ltd., Dagenham, England) for 30 mins at 4° C. The plates were washed five times with tap water. Then 0.1 ml of 0.4% (w/v) sulforhodamine B (Sigma Chemical Co., St. Louis, USA) dissolved in 1% acetic acid (Ajax Chemicals, Australia) was added to the wells and left to stand at room temperature for 15 mins. The plates were then washed five times with 1% acetic acid and left to dry overnight. The next morning, 0.1 ml of 10 mM Tris buffer (Sigma Chemical Co., St. Louis, USA) was then added to each plate to solubilise the dye. Absorbance was read at a wavelength of 570 nm using a 96 well plate reader Dynatech MR 5000 plate reader. Absorbance of treatment cells was expressed as a percentage of positive (drug-free) controls. The results were plotted as percentage growth versus drug concentration.

SKOV-3 = assay: cytotoxicity assay, sulforhodamine B; format: cell-based, human; conditions: 96 hrs, mean ± SD or individual values when n<3
Procedure: as §3, §4, §5

41M-cisR = assay: cytotoxicity assay, sulforhodamine B; format: cell-based, human; conditions: 96 hrs, mean ± SD or individual values when n<3
Procedure: as §3, §4, §5

[2] = test system: CI-80-13S vs JAM; HeLa-S1a vs HeLa; assay: relative cytotoxic potency in cisplatin-resistant and non-resistant cells (Table 1); format: cell-based, human; conditions: CI80-13-S vs JAM; HeLaS1a vs HeLa
Description: as §1, with “All of these cell lines have been used before for carrying out cell survival assays referred to in FIGS. 1-4. Cells were cultured at 37° in 5% CO2 /air in Roswell Park Memorial Institute medium 1640 containing 5% foetal calf serum, 100 μg/ml streptomycin, 100 IU/ml penicillin, 1 mM pyruvate, 50 μM nicotinamide and 3 mM HEPES.” left out
Cells were seeded in microtitre plates (lowest number for fastest growing cells: 1000 HeLa, 2000 MM96, […] CI-80-13S cells per 6 mm well in 100 μl), normally but not necessarily allowed to attach overnight, then 5 dilutions of the drug were added to duplicate wells. […] Cell growth/morphology was scored at each dose visually (inverted microscope). […] Radioactivity was determined in an LKB Beta Plate counter and the results plotted as log % control cpm versus dose. […]

[3] = test system: 41M, 41M-cisR, SKOV-3, CH1, CH1-cisR; assay: growth inhibition of cisplatin-sensitive and -resistant ovarian cancer cell lines (Table 2, FIG. 5); format: cell-based, human
Description: (§6) The sensitive CH1 cell line was established from a patient with drug-sensitive disease and its resistant variant (CH1-cisR) was generated by prolonged in vitro exposure to cisplatin during which it acquired more efficient DNA repair as described in Kelland et al., 1992, Cancer Research 52 3857-3864. The sensitive 41M cell line was also established from a patient with a sensitive tumor and its resistant variant (41M-cisR) was generated in the same way but acquired decreased uptake across the cell membrane (Kelland et al., 1992, supra). The intrinsically-resistant SKOV-3 ovarian carcinoma cell line has high glutathione levels as described in Mistry et al., 1991, Brit. J. Cancer 64 215-220 and reduced levels of bi-functional cisplatin-DNA lesions as described in McKeage et al., 1994, Brit. J. Cancer 69 1-7. The characteristics of the cell line pairs CH1/CH1 cisR, 41M/41McisR and 41M/SKOV3 are described in Table 3.
as §5, with “concentration. The drug concentration resulting in a 50% growth inhibition was termed the IC50. The passage numbers used for the cytotoxicity assay from each cell line were, CH1 passages 50-58, CH1 cis-R passages 77-83, 41M passages 50-63, 41M cisR 81-92 and SKOV-3 passages 106-128.” for “concentration.”

MM96 = assay: cell survival after drug treatment ([methyl-3H]-thymidine); format: cell-based, human; conditions: for IC50: MM96L, mean ± SD or individual values when n<3, 5-7 days
Description: (§7) In FIGS. 1-4 and Table 1, reference is made to the cell lines HeLa, HeLa-S1a, JAM, CI-80-13S and MM96.
as §1, §2

HeLa-S1a = assay: as above; format: cell-based, human; conditions: for IC50: HeLa-S1a, mean ± SD or individual values when n<3, 5-7 days
Description: as §7, §1, §2

CI-80-13S = assay: as above; format: cell-based, human; conditions: for IC50: CI-80-13S, mean ± SD or individual values when n<3, 5-7 days
Description: as §7, §1, §2

HeLa = assay: as above; format: cell-based, human; conditions: for IC50: HeLa, mean ± SD or individual values when n<3, 5-7 days
Description: as §7, §1, §2

JAM = assay: as above; format: cell-based, human; conditions: mean ± SD or individual values when n<3, 5-7 days
Description: as §7, §1, §2

cisplatin cytotoxicity [4] = conditions: in vitro; cited from earlier work
cisplatin cytotoxicity [5] = conditions: in vivo; cited from earlier work
CH1 = assay: cytotoxicity assay, sulforhodamine B; format: cell-based, human; conditions: 96 hrs, mean ± SD or individual values when n<3
Procedure: as §3, §4, §5

CH1-cisR = assay: cytotoxicity assay, sulforhodamine B; format: cell-based, human; conditions: 96 hrs, mean ± SD or individual values when n<3
Procedure: as §3, §4, §5

human tumour cell lines = assay: selectivity of cytotoxicity over all cell lines evaluated (Tables 1 and 2); format: cell-based
Description: as §1, §2, §6
The cytotoxicity assay used sulforhodamine B which stains the basic amino acids. Cells (5000 or 2500 for SKOV-3) were seeded into 96 well microtitre plates (Linbro, Flow Laboratories Inc., USA) in 0.1 ml of medium. After an overnight incubation, the metal phosphine compounds were dissolved in 0.9% NaCl or ethanol and diluted with medium, were added at concentrations ranging from 0.005 to 50 μM to quadruplicate wells. After 96 hrs incubation, the medium was removed and cells were fixed in 0.2 ml of cold 10% (w/v) trichloroacetic acid (May & Baker Ltd., Dagenham, England) for 30 mins at 4° C. The plates were washed five times with tap water. […]

O=[N+]([O-])[O-].O=[N+]([O-])[O-].[Ag+].[Ag+].c1ccc(P(CCP(c2ccccn2)c2ccccn2)c2ccccn2)nc1.c1ccc(P(CCP(c2ccccn2)c2ccccn2)c2ccccn2)nc1.c1ccc(P(CCP(c2ccccn2)c2ccccn2)c2ccccn2)nc1.c1ccc(P(CCP(c2ccccn2)c2ccccn2)c2ccccn2)nc1 [[Ag2 (d2pype)4](NO3)2]
cytotoxicity (FIGS. 3 and 4) [1]: cytotoxic to all four cell lines | selectivity against the cisplatin-resistant lines [1]: do not show the same selectivity

[Cl-].[Cl-].c1ccc([P+]2(c3ccccn3)CC[P+](c3ccccn3)(c3ccccn3)[Au-3]23[P+](c2ccccn2)(c2ccccn2)CC[P+](c2ccccn2)(c2ccccn2)[Au-3]2([P+](c4ccccn4)(c4ccccn4)CC[P+]2(c2ccccn2)c2ccccn2)[P+](c2ccccn2)(c2ccccn2)CC[P+]3(c2ccccn2)c2ccccn2)nc1 [[Au2 (d2pype)4]Cl2]
IC50 (41M): 700 nM | IC50 (SKOV-3): 1100 nM | IC50 (41M-cisR): 600 nM | cytotoxicity (FIGS. 3 and 4) [1]: cytotoxic to all four cell lines | selectivity against the cisplatin-resistant lines [1]: do not show the same selectivity | sensitivity of cisplatin-resistant cell lines versus non-resistant cells [2]: more sensitive | selectivity and cytotoxicity in ovarian cancer cell-lines (FIG. 5) [3]: cytotoxic to the 41M pair and the resistant SKOV-3 | IC50 (MM96): 90 nM | IC50 (HeLa-S1a): 60 nM | IC50 (CI-80-13S): 60 ± 30 nM | IC50 (HeLa): 240 ± 100 nM | IC50 (JAM): 100 nM and 390 nM

Cc1cc(N)c2ccccc2[n+]1CCCCCCCCCC[n+]1c(C)cc(N)c2ccccc21 [delqualinium]
enhancement of cisplatin cytotoxicity (cisplatin cytotoxicity [4]): enhance cisplatin cytotoxicity | enhancement of cisplatin cytotoxicity (cisplatin cytotoxicity [5]): enhance cisplatin cytotoxicity

[Au+].[Au+].[Cl-].[Cl-].c1cncc(P(CCP(c2cccnc2)c2cccnc2)c2cccnc2)c1.c1cncc(P(CCP(c2cccnc2)c2cccnc2)c2cccnc2)c1 [[Au2 (d3pype)2 Cl2]]
IC50 (41M): 70000 ± 12000 nM | IC50 (CH1): 900 ± 400 nM | IC50 (SKOV-3): 71000 ± 12000 nM | IC50 (41M-cisR): 47000 nM | IC50 (CH1-cisR): 500 ± 100 nM | sensitivity of cisplatin resistant cells versus non-resistant cells ([3]; 41M/41M-cisR and CH1/CH1-cisR pairs): consistently more sensitive | IC50 (MM96): 56000 nM | cytotoxicity (FIGS. 1 and 2) (MM96; MM96 melanoma in vitro): inactive | cytotoxicity (FIGS. 1 and 2) (HeLa-S1a; HeLa-S1a in vitro): selectively cytotoxic | IC50 (HeLa-S1a): 400 nM | cytotoxicity (FIGS. 1 and 2) (CI-80-13S; CI-80-13S ovarian in vitro): selectively cytotoxic | IC50 (CI-80-13S): 400 nM | cytotoxicity (FIGS. 1 and 2) (HeLa; HeLa cervical carcinoma in vitro): inactive | IC50 (HeLa): 38000 nM

Cl.c1cncc([P+]2(c3cccnc3)CC[P+](c3cccnc3)(c3cccnc3)[Au-3]23[P+](c2cccnc2)(c2cccnc2)CC[P+]3(c2cccnc2)c2cccnc2)c1 [[Au(d3pype)2]Cl]
IC50 (41M): > 25000 nM | IC50 (CH1): 1500 nM | IC50 (SKOV-3): > 25000 nM | IC50 (41M-cisR): 11000 nM | IC50 (CH1-cisR): 10000 nM

[Au+].[Cl-].c1ccc(P(CCP(c2ccccc2)c2ccccn2)c2ccccn2)cc1.c1ccc(P(CCP(c2ccccc2)c2ccccn2)c2ccccn2)cc1 (stereo not drawn) [[Au(2-pyppe)2]Cl]
number of cell lines against which cytotoxic (human tumour cell lines): cytotoxic to all the cell lines evaluated | degree of selectivity (human tumour cell lines; Tables 1 and 2): the least selectivity | IC50 (41M): 100 nM | IC50 (SKOV-3): 200 nM | IC50 (41M-cisR): 100 nM | selectivity and cytotoxicity in ovarian cancer cell-lines (FIG. 5) ([3]; 96h incubation): cytotoxic to the 41M pair and the resistant SKOV-3

Cl.c1cncc([P+]2(c3cccnc3)CC[P+](c3cccnc3)(c3cccnc3)[Cu-3]23[P+](c2cccnc2)(c2cccnc2)CC[P+]3(c2cccnc2)c2cccnc2)c1 [[Cu(d3pype)2]Cl]
IC50 (41M): > 50000 nM | IC50 (CH1): 3000 nM | IC50 (SKOV-3): > 50000 nM | IC50 (41M-cisR): 30000 nM
